In patent US9765018B2, “IDO inhibitors” (BRISTOL-MYERS SQUIBB COMPANY, priority 2013, dated 2017):
pIC50: −log10 of the molar value.

How the values were obtained:
Human IDO1 = Human IDO1 (Homo sapiens (Human), UniProt P14902); assay: IDO Kynurenine Assay with Human IDO1/HEK293 Cells; assay type: cell-based; conditions: HEK293 cells with human IDO1; read-out: HEK human IDO-1 (IC50)
Description: IDO Kynurenine Assay with Human IDO1/HEK293 Cells
Human IDO1/HEK293 cells were seeded at 10,000 cells per 50 uL per well with RPMI/phenol red free media contains 10% FBS in a 384-well black wall clear bottom tissue culture plate (Matrix Technologies LLC) 125 nL of certain concentration of compound was then added to each well using ECHO liquid handling systems. The cells were incubated for 20 hours in 37° C. incubator with 5% CO2.
The compound treatments were stopped by adding Trichloroacetic Acid (Sigma-Aldrich) to a final concentration at 0.2%. The cell plate was further incubated at 50° C. for 30 minute. The equal volume supernatant (20 uL) and 0.2% (w/v) Ehrlich reagent (4-dimethylaminobenzaldehyde, Sigma-Aldrich) in glacial acetic acid were mixed in a new clear bottom 384-well plate. This plate was then incubated at room temperature for 30 minute. The absorbance at 490 nm was measured on Envision plate reader.

IDO [1] = target: T1, IDO (Homo sapiens (Human), UniProt P14902); assay: Kynurenine assay in IFN-γ-stimulated Hela cells; assay type: cell-based; conditions: 20 h, read-out: Hela Kyurenine (IC50)
T1 sequence (P14902 whole entry): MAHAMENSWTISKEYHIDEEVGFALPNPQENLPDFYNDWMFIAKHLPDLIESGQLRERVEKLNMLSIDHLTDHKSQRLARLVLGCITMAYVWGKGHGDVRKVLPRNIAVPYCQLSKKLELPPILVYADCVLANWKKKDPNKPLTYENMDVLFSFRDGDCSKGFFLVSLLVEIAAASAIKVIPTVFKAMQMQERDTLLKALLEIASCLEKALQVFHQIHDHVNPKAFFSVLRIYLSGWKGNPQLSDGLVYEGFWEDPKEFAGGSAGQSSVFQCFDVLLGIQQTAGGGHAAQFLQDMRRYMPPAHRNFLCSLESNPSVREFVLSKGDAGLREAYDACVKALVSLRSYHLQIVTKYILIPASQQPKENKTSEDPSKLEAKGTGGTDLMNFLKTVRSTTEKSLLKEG
Outline: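 Kynurenine in supernatant is read at 490 nm after Ehrlich reagent (10 min RT), following TCA stop and 30 min at 50° C hydrolysis. Before that, Hela cells in phenol red-free RPMI/10% FBS were co-treated 20 h at 37° C with 100 ng/mL IFN-γ and compound (30 μM top, 3-fold series to 1.5 nM).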

IDO [2] = target: T1, IDO; assay: LLE_IDO_ABS_DR (IDO assay, method not described)

Human IDO1, sequence (P14902 whole entry): as above

| SMILES | pIC50 (Human IDO1) | pIC50 (IDO [1]) | pIC50 (IDO [2]) |
| --- | --- | --- | --- |
| Cc1ccccc1NC(=O)Nc1cc(-c2cc(F)cc(C(=O)O)c2)ccc1Oc1ccccc1C(C)(C)C [Example 254, 4′-(2-tert-butylphenoxy)-5-fluoro-3′-(3-o-tolylureido) biphenyl-3-carboxylic acid] | 5.79 | 6.46 | 5.94 |
| COc1ccc(-c2ccc(Oc3ccccc3C(C)(C)C)c(NC(=O)Nc3ccc(Cl)cc3Cl)c2)cc1C(=O)O [Example 103, 4′-(2-(tert-butyl)phenoxy)-3′-(3-(2,4-dichlorophenyl)ureido)-4-methoxy-[1,1′-biphenyl]-3-carboxylic acid] | 5.88 | 7.05 | 6.33 |
| Cc1ccc(NC(=O)Nc2cc(-c3cccc(C(=O)O)c3)ccc2Oc2cccc(Cl)c2)cc1 [Example 245, 4′-(3-chlorophenoxy)-3′-(3-p-tolylureido) biphenyl-3-carboxylic acid] | 5.18 | 6.60 | 5.65 |
| CCOc1ccc(-c2ccc(Oc3ccccc3C(C)(C)C)c(NC(=O)Nc3ccc(C)cc3)c2)cc1C(=O)O [Example 5, 4′-(2-tert-Butylphenoxy)-4-ethoxy-3′-(3-p-tolylureido)biphenyl-3-carboxylic acid] | 5.74 | 6.92 | 6.00 |
| COc1ccc(-c2ccc(Oc3cccc(C(C)(C)C)c3)c(NC(=O)Nc3ccc(C)cc3)c2)cc1C(=O)O [Example 113, 4′-(3-tert-butylphenoxy)-4-methoxy-3′-(3-p-tolylureido)biphenyl-3-carboxylic acid] | 5.78 | 6.16 | 6.06 |
| Cc1cccc(NC(=O)Nc2cc(-c3cccc(C(=O)O)c3)ccc2Oc2ccccc2C(C)(C)C)c1 [Example 225, 4′-(2-tert-butylphenoxy)-3′-(3-m-tolylureido) biphenyl-3-carboxylic acid] | 5.12 | 6.24 | 5.54 |
| COc1ccc(-c2ccc(Oc3cccc4c3CCCC4)c(NC(=O)Nc3ccc(C)c(C)c3)c2)cc1C(=O)O [Example 153, 3′-(3-(3,4-dimethylphenyl)ureido)-4-methoxy-4′-(5,6,7,8-tetrahydronaphthalen-1-yloxy)biphenyl-3-carboxylic acid] | 6.04 | 7.40 | 6.28 |
| COc1ccc(-c2ccc(Oc3ccccc3C(C)(C)C)c(NC(=O)Nc3ccc(C)cc3)c2)cc1NS(=O)(=O)C(F)(F)F [Example 7, N-(4′-(2-tert-Butylphenoxy)-4-methoxy-3′-(3-p-tolylureido)biphenyl-3-yl)-1,1,1-trifluoromethanesulfonamide] | 6.12 | 6.96 | 6.49 |
| COc1ccc(-c2ccc(Oc3cccc4c3CCC4)c(NC(=O)Nc3ccc(C)cc3)c2)cc1C(=O)O [Example 145, 4′-(2,3-dihydro-1H-inden-4-yloxy)-4-methoxy-3′-(3-p-tolylureido)biphenyl-3-carboxylic acid] | 5.80 | 6.55 | 6.10 |
| COc1ccc(-c2ccc(Oc3ccccc3C(C)C)c(NC(=O)Nc3ccc(C)cc3)c2)cc1C(=O)O [Example 63, 4′-(2-isopropylphenoxy)-4-methoxy-3′-(3-p-tolylureido)biphenyl-3-carboxylic acid] | 5.80 | 6.41 | 5.79 |
| COc1ccc(-c2ccc(Oc3cccc4c3CCCC4)c(NC(=O)Nc3ccccc3)c2)cc1C(=O)O [Example 151, 4-methoxy-3′-(3-phenylureido)-4′-(5,6,7,8-tetrahydronaphthalen-1-yloxy)biphenyl-3-carboxylic acid] | 5.95 | 7.22 | 6.52 |
| COc1ccc(-c2ccc(Oc3ccccc3C3CC3)c(NC(=O)Nc3ccc(C)cc3)c2)cc1C(=O)O [Example 127, 4′-(2-cyclopropylphenoxy)-4-methoxy-3′-(3-p-tolylureido)biphenyl-3-carboxylic acid] | 5.48 | 6.31 | 5.61 |
| COc1ccc(-c2ccc(Oc3cccc4ccccc34)c(NC(=O)Nc3ccc(C)cc3)c2)cc1C(=O)O [Example 131, 4-methoxy-4′-(naphthalen-1-yloxy)-3′-(3-p-tolylureido)biphenyl-3-carboxylic acid] | 6.11 | 6.80 | 6.11 |
| COc1ccc(-c2ccc(Oc3ccccc3C(C)(C)C)c(NC(=O)Nc3ccccc3Cl)c2)cc1C(=O)O [Example 42, 4′-(2-tert-butylphenoxy)-3′-(3-(2-chlorophenyl)ureido)-4-methoxybiphenyl-3-carboxylic acid] | 6.21 | 7.05 | 6.47 |

Compounds with a higher pIC50 (Human IDO1), results first:

| pIC50 (Human IDO1) | pIC50 (IDO [1]) | pIC50 (IDO [2]) | SMILES |
| --- | --- | --- | --- |
| 6.27 | 7.30 | 6.49 | COc1ccc(-c2ccc(Oc3ccccc3C(C)(C)C)c(NC(=O)Nc3ccccc3C(F)(F)F)c2)cc1C(=O)O [Example 46, 4′-(2-tert-butylphenoxy)-4-methoxy-3′-(3-(2-(trifluoromethyl)phenyl)ureido)biphenyl-3-carboxylic acid] |
| 6.35 | 7.30 | 6.54 | COc1ccc(-c2ccc(Oc3cccc4c3CCCC4)c(NC(=O)Nc3ccccc3F)c2)cc1C(=O)O [Example 152, 3′-(3-(2-fluorophenyl)ureido)-4-methoxy-4′-(5,6,7,8-tetrahydronaphthalen-1-yloxy)biphenyl-3-carboxylic acid] |
| 6.38 | 7.30 | 6.48 | C#CCOc1cccc(Oc2ccc(-c3ccc(OC)c(C(=O)O)c3)cc2NC(=O)Nc2ccc(C)cc2)c1C [Example 141, 4-methoxy-4′-(2-methyl-3-(prop-2-ynyloxy)phenoxy)-3′-(3-p-tolylureido)biphenyl-3-carboxylic acid] |
| 6.54 | 7.15 | 6.52 | COc1ccc(-c2ccc(Oc3cccc4ccccc34)c(NC(=O)Nc3ccccc3C)c2)cc1C(=O)O [Example 129, 4-methoxy-4′-(naphthalen-1-yloxy)-3′-(3-o-tolylureido)biphenyl-3-carboxylic acid] |
| 6.62 | 7.30 | 6.70 | COc1ccc(-c2ccc(Oc3cccc4c3CCCC4)c(NC(=O)Nc3ccccc3C)c2)cc1C(=O)O [Example 115, 4-methoxy-4′-(5,6,7,8-tetrahydronaphthalen-1-yloxy)-3′-(3-o-tolylureido)biphenyl-3-carboxylic acid] |
| 6.92 | 7.70 | 7.00 | COc1ccc(-c2ccc(Oc3cccc4c3CCCC4)c(NC(=O)Nc3ccccc3Cl)c2)cc1C(=O)O [Example 114, 3′-(3-(2-chlorophenyl)ureido)-4-methoxy-4′-(5,6,7,8-tetrahydronaphthalen-1-yloxy)biphenyl-3-carboxylic acid] |
| 7.22 | – | 7.52 | CCCOc1c(Br)cc(-c2ccccc2-c2nnn[nH]2)cc1NC(=O)Nc1ccc(C)cc1 [Example 283] |
| 7.40 | – | 7.40 | O=C(Nc1ccc(C2CC2)cc1)Nc1cc(-c2ccccc2-c2nnn[nH]2)cc(CC2CC2)c1OCCC(F)(F)F [Example 316] |
| 7.70 | – | 7.52 | CCCOc1c(CCCc2ccccc2)cc(-c2ccccc2C(=O)O)cc1NC(=O)Nc1ccc(C)cc1 [Example 36, 3′-(3-Phenylpropyl)-4′-propoxy-5′-(3-p-tolylureido)biphenyl-2-carboxylic acid] |
